Laboratory results published in patent publication US5502035A, “N-terminus modified analogs of LHRH” (Tap Holdings Inc., priority 1994, dated 1996).
Non-standard residues stand in square brackets, D forms with d. Residues, ends and D or L forms follow the SMILES beside them. Groups on a side chain read outwards from the residue. *: point of attachment. NMePhe(4-NO2) = CN[C@@H](Cc1ccc([N+](=O)[O-])cc1)C(=O)O; Shikimoyl = O=C(C1=C[C@@H](O)[C@@H](O)[C@H](O)C1)*; Quinoline3carbonyl = O=C(c1cnc2ccccc2c1)*; dPhe(4-Cl) = N[C@H](Cc1ccc(Cl)cc1)C(=O)O; d2Nal = N[C@H](Cc1ccc2ccccc2c1)C(=O)O; NMeY = CN[C@@H](Cc1ccc(O)cc1)C(=O)O; NMeF = CN[C@@H](Cc1ccccc1)C(=O)O; hArg = N=C(N)NCCCC[C@H](N)C(=O)O; d3Pal = N[C@H](Cc1cccnc1)C(=O)O; Nicotinoyl = O=C(c1cccnc1)*; 2Furoyl = O=C(c1ccco1)*; Aze = O=C(O)[C@@H]1CCN1; βAla = NCCC(=O)O

Each compound was assayed against T1, LHRH (Rattus norvegicus, UniProt P30969) (assay: in vitro test for LHRH antagonist potency (pA2)). Details: negative logarithm of the antagonist concentration required to shift the response curve produced by the agonist leuprolide to two-fold higher concentration.
T1 construct: endogenous in cells; host or cells: rat pituitary cells (own knowledge of the cited Haviv 1989 method)
T1 sequence (P30969 1-327): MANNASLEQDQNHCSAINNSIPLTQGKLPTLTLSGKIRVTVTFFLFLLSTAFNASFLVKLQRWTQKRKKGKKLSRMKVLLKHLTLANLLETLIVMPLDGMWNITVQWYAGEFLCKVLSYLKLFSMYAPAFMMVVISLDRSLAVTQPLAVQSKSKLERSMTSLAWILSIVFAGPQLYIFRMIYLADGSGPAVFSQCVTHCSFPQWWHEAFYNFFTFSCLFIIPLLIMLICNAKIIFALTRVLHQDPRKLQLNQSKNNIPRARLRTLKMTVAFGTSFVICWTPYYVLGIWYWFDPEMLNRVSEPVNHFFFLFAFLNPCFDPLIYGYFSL
Format: cell-based
Outline: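 Rat LHRH receptor in vitro functional test; pA2 = negative log of the antagonist concentration shifting the leuprolide agonist response curve to two-fold higher concentration.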

**Q.** `CC(C)C[C@H](NC(=O)[C@@H](CCCCNC(=O)C1=C[C@@H](O)[C@@H](O)[C@H](O)C1)NC(=O)[C@H](Cc1ccc(O)cc1)N(C)C(=O)[C@H](CO)NC(=O)[C@@H](Cc1cccnc1)NC(=O)[C@@H](Cc1ccc(Cl)cc1)NC(=O)[C@@H](Cc1ccc2ccccc2c1)NC(=O)[C@@H](CO)NC(=O)c1cccnc1)C(=O)N[C@@H](CCCCNC(=N)N)C(=O)N1CCC[C@H]1C(=O)N[C@H](C)C(N)=O` [Example 25b, N-Nicotinyl-DSer-D2Nal-D4ClPhe-D3Pal-Ser-NMeTyr-DLys(Shikimyl)-Leu-Harg-Pro-DAlaNH2] (Nicotinoyl-[dS][d2Nal][dPhe(4-Cl)][d3Pal]S[NMeY][dK](Shikimoyl)L[hArg]P[dA]-NH2) was tested. Which Kb did it give?
**A.** 0.00794 nM

**Q.** With `CC(C)C[C@H](NC(=O)[C@@H](CCCCNC(=O)C1=C[C@@H](O)[C@@H](O)[C@H](O)C1)NC(=O)[C@H](Cc1ccc(O)cc1)N(C)C(=O)[C@H](CO)NC(=O)[C@@H](Cc1cccnc1)NC(=O)[C@@H](Cc1ccc(Cl)cc1)NC(=O)[C@@H](Cc1ccc2ccccc2c1)NC(=O)CNC(=O)c1ccco1)C(=O)N[C@@H](CCCCNC(=N)N)C(=O)N1CCC[C@H]1C(=O)N[C@H](C)C(N)=O` [Example 25c, N-(2-Furoyl)-Gly-D2Nal-D4ClPhe-D3Pal-Ser-NMeTyr-DLys(Shik)-Leu-Harg-Pro-DAlaNH2] (2Furoyl-G[d2Nal][dPhe(4-Cl)][d3Pal]S[NMeY][dK](Shikimoyl)L[hArg]P[dA]-NH2) as the compound, how does the Kb read?
**A.** 0.0017 nM

**Q.** Which Kb does the source give for `CC(C)C[C@H](NC(=O)[C@@H](CCCCNC(=O)C1=C[C@@H](O)[C@@H](O)[C@H](O)C1)NC(=O)[C@H](Cc1ccc(O)cc1)N(C)C(=O)[C@H](CO)NC(=O)[C@@H](Cc1cccnc1)NC(=O)[C@@H](Cc1ccc(Cl)cc1)NC(=O)[C@@H](Cc1ccc2ccccc2c1)NC(=O)CNC(=O)C1=C[C@@H](O)[C@@H](O)[C@H](O)C1)C(=O)N[C@@H](CCCCNC(=N)N)C(=O)N1CCC[C@H]1C(=O)N[C@H](C)C(N)=O` [Example 25d, N-Shikimyl-Gly-D2Nal-D4ClPhe-D3Pal-Ser-NMeTyr-DLys(Shik)-Leu-Harg-Pro-DAlaNH2] (Shikimoyl-G[d2Nal][dPhe(4-Cl)][d3Pal]S[NMeY][dK](Shikimoyl)L[hArg]P[dA]-NH2) here?
**A.** 0.0339 nM

**Q.** For `CC(C)C[C@H](NC(=O)[C@@H](CCCCNC(=O)CNC(=O)C1=C[C@@H](O)[C@@H](O)[C@H](O)C1)NC(=O)[C@H](Cc1ccc(O)cc1)N(C)C(=O)[C@H](CO)NC(=O)[C@@H](Cc1cccnc1)NC(=O)[C@@H](Cc1ccc(Cl)cc1)NC(=O)[C@@H](Cc1ccc2ccccc2c1)NC(=O)CNC(=O)c1cccnc1)C(=O)N[C@@H](CCCCNC(=N)N)C(=O)N1CCC[C@H]1C(=O)N[C@H](C)C(N)=O` [Example 25e, N-Nicotinyl-Gly-D2Nal-D4ClPhe-D3Pal-Ser-NMeTyr-DLys(Gly-Shik)-Leu-Harg-Pro-DAlaNH2] (Nicotinoyl-G[d2Nal][dPhe(4-Cl)][d3Pal]S[NMeY][dK]([Gly-Shikimoyl])L[hArg]P[dA]-NH2), which Kb is on record?
**A.** 0.00339 nM

**Q.** For `CC(C)C[C@H](NC(=O)[C@@H](CCCCNC(=O)c1cccnc1)NC(=O)[C@H](Cc1ccc(O)cc1)N(C)C(=O)[C@H](CO)NC(=O)[C@@H](Cc1cccnc1)NC(=O)[C@@H](Cc1ccc(Cl)cc1)NC(=O)[C@@H](Cc1ccc2ccccc2c1)NC(=O)CNC(=O)c1cccnc1)C(=O)N[C@@H](CCCCNC(=N)N)C(=O)N1CCC[C@H]1C(=O)N[C@H](C)C(N)=O` [Example 25f, N-Nicotinyl-Gly-D2Nal-D4ClPhe-D3Pal-Ser-NMeTyr-DLys(Nicotinyl)-Leu-Harg-Pro-DAlaNH2] (Nicotinoyl-G[d2Nal][dPhe(4-Cl)][d3Pal]S[NMeY][dK](Nicotinoyl)L[hArg]P[dA]-NH2), which Kb is on record?
**A.** 0.0234 nM

**Q.** Which Kb does the source give for `CC(C)C[C@H](NC(=O)[C@@H](CCCCNC(=O)C1=C[C@@H](O)[C@@H](O)[C@H](O)C1)NC(=O)[C@H](Cc1ccc(O)cc1)N(C)C(=O)[C@H](CO)NC(=O)[C@@H](Cc1cccnc1)NC(=O)[C@@H](Cc1ccc(Cl)cc1)NC(=O)[C@@H](Cc1ccc2ccccc2c1)NC(=O)CNC(=O)c1cnc2ccccc2c1)C(=O)N[C@@H](CCCCNC(=N)N)C(=O)N1CCC[C@H]1C(=O)N[C@H](C)C(N)=O` [Example 25g, N-(3-Quinolinylcarbonyl)-Gly-D2Nal-D4ClPhe-D3Pal-Ser-NMeTyr-DLys(Shikimyl)-Leu-Harg-Pro-DAlaNH2] (Quinoline3carbonyl-G[d2Nal][dPhe(4-Cl)][d3Pal]S[NMeY][dK](Shikimoyl)L[hArg]P[dA]-NH2) here?
**A.** 0.0324 nM

**Q.** Which Kb does the source give for `CC(C)C[C@H](NC(=O)[C@@H](CCCCNC(=O)C1=C[C@@H](O)[C@@H](O)[C@H](O)C1)NC(=O)[C@H](Cc1ccccc1)N(C)C(=O)[C@H](CO)NC(=O)[C@@H](Cc1cccnc1)NC(=O)[C@@H](Cc1ccc(Cl)cc1)NC(=O)[C@@H](Cc1ccc2ccccc2c1)NC(=O)CNC(=O)c1cccnc1)C(=O)N[C@@H](CCCCNC(=N)N)C(=O)N1CCC[C@H]1C(=O)N[C@H](C)C(N)=O` [Example 26a, N-Nicotinyl-Gly-D2Nal-D4ClPhe-D3Pal-Ser-NMePhe-DLys(Shik)-Leu-Harg-Pro-DAlaNH2] (Nicotinoyl-G[d2Nal][dPhe(4-Cl)][d3Pal]S[NMeF][dK](Shikimoyl)L[hArg]P[dA]-NH2) here?
**A.** 0.0275 nM

**Q.** Which Kb does the source give for `CC(C)C[C@H](NC(=O)[C@@H](CCCCNC(=O)C1=C[C@@H](O)[C@@H](O)[C@H](O)C1)NC(=O)[C@H](Cc1ccc([N+](=O)[O-])cc1)N(C)C(=O)[C@H](CO)NC(=O)[C@@H](Cc1cccnc1)NC(=O)[C@@H](Cc1ccc(Cl)cc1)NC(=O)[C@@H](Cc1ccc2ccccc2c1)NC(=O)CNC(=O)c1cccnc1)C(=O)N[C@@H](CCCCNC(=N)N)C(=O)N1CCC[C@H]1C(=O)N[C@H](C)C(N)=O` [Example 26b, N-Nicotinyl-Gly-D2Nal-D4ClPhe-D3Pal-Ser-NMePhe(NO2)-DLys(Shik)-Leu-Harg-Pro-DAlaNH2] (Nicotinoyl-G[d2Nal][dPhe(4-Cl)][d3Pal]S[NMePhe(4-NO2)][dK](Shikimoyl)L[hArg]P[dA]-NH2) here?
**A.** 0.0437 nM

**Q.** How did the Kb turn out when `CC(C)C[C@H](NC(=O)[C@@H](CCCCNC(=O)c1cccnc1)NC(=O)[C@H](Cc1ccc(O)cc1)N(C)C(=O)[C@H](CO)NC(=O)[C@@H](Cc1cccnc1)NC(=O)[C@@H](Cc1ccc(Cl)cc1)NC(=O)[C@@H](Cc1ccc2ccccc2c1)NC(=O)CNC(=O)c1cccnc1)C(=O)N[C@@H](CCCNC(=N)N)C(=O)N1CCC[C@H]1C(=O)N[C@H](C)C(N)=O` [Example 27a, N-Nicotinyl-Gly-D2Nal-D4ClPhe-D3Pal-Ser-NMeTyr-DLys(Nic)-Leu-Arg-Pro-DAlaNH2] (Nicotinoyl-G[d2Nal][dPhe(4-Cl)][d3Pal]S[NMeY][dK](Nicotinoyl)LRP[dA]-NH2) was run?
**A.** 0.00776 nM

**Q.** Which Kb does the source give for `CC(C)C[C@H](NC(=O)[C@@H](CCCCNC(=O)c1cccnc1)NC(=O)[C@H](Cc1ccc(O)cc1)N(C)C(=O)[C@H](CO)NC(=O)[C@@H](Cc1cccnc1)NC(=O)[C@@H](Cc1ccc(Cl)cc1)NC(=O)[C@@H](Cc1ccc2ccccc2c1)NC(=O)CNC(=O)C1=C[C@@H](O)[C@@H](O)[C@H](O)C1)C(=O)N[C@@H](CCCNC(=N)N)C(=O)N1CC[C@H]1C(=O)N[C@H](C)C(N)=O` [Example 27c, N-Shikimyl-Gly-D2Nal-D4ClPhe-D3Pal-Ser-NMeTyr-DLys(Nic)-Leu-Arg-Aze-DAlaNH2] (Shikimoyl-G[d2Nal][dPhe(4-Cl)][d3Pal]S[NMeY][dK](Nicotinoyl)LR[Aze][dA]-NH2) here?
**A.** 0.0977 nM

**Q.** For `CC(C)C[C@H](NC(=O)[C@@H](CCCCNC(=O)C1=C[C@@H](O)[C@@H](O)[C@H](O)C1)NC(=O)[C@H](Cc1ccc(O)cc1)N(C)C(=O)[C@H](CO)NC(=O)[C@@H](Cc1cccnc1)NC(=O)[C@@H](Cc1ccc(Cl)cc1)NC(=O)[C@@H](Cc1ccc2ccccc2c1)NC(=O)CCNC(=O)c1cccnc1)C(=O)N[C@@H](CCCNC(=N)N)C(=O)N1CCC[C@H]1C(=O)N[C@H](C)C(N)=O` [Example 27d, N-Nicotinyl-3-Aminopropionyl-D2Nal-D4ClPhe-D3Pal-Ser-NMeTyr-DLys(Shikimyl)-Leu-Arg-Pro-DAlaNH 2] ({Nicotinoyl-βAla}-[d2Nal][dPhe(4-Cl)][d3Pal]S[NMeY][dK](Shikimoyl)LRP[dA]-NH2), which Kb is on record?
**A.** 0.00178 nM

**Q.** How did the Kb turn out when `CC(C)C[C@H](NC(=O)[C@@H](CCCCNC(=O)C1=C[C@@H](O)[C@@H](O)[C@H](O)C1)NC(=O)[C@H](Cc1ccc(O)cc1)N(C)C(=O)[C@H](CO)NC(=O)[C@@H](Cc1cccnc1)NC(=O)[C@@H](Cc1ccc(Cl)cc1)NC(=O)[C@@H](Cc1ccc2ccccc2c1)NC(=O)CCNC(=O)C1=C[C@@H](O)[C@@H](O)[C@H](O)C1)C(=O)N[C@@H](CCCNC(=N)N)C(=O)N1CCC[C@H]1C(=O)N[C@H](C)C(N)=O` [Example 27e, N-Shikimyl-3-Aminopropionyl-D2Nal-D4ClPhe-D3Pal-Ser-NMeTyr-DLys(Shik)-Leu- Arg-Pro-DAlaNH2] ({Shikimoyl-βAla}-[d2Nal][dPhe(4-Cl)][d3Pal]S[NMeY][dK](Shikimoyl)LRP[dA]-NH2) was run?
**A.** 0.0347 nM

**Q.** For `CC(C)C[C@H](NC(=O)[C@@H](CCCCNC(=O)C1=C[C@@H](O)[C@@H](O)[C@H](O)C1)NC(=O)[C@H](Cc1ccc(O)cc1)N(C)C(=O)[C@H](CO)NC(=O)[C@@H](Cc1cccnc1)NC(=O)[C@@H](Cc1ccc(Cl)cc1)NC(=O)[C@@H](Cc1ccc2ccccc2c1)NC(=O)CCNC(=O)c1cccnc1)C(=O)N[C@@H](CCCCNC(=N)N)C(=O)N1CCC[C@H]1C(=O)N[C@H](C)C(N)=O` [Example 28, N-Nicotinyl-3Aminopropionyl-D2Nal-D4ClPhe-D3Pal-Ser-NMeTyr-DLys(Shik)-Leu-Harg-Pro-DAlaNH2] ({Nicotinoyl-βAla}-[d2Nal][dPhe(4-Cl)][d3Pal]S[NMeY][dK](Shikimoyl)L[hArg]P[dA]-NH2), which Kb is on record?
**A.** 0.00977 nM
